Measured values: PubChem BioAssay (NCI)
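Cells were grown in 96-well plates and exposed to each compound for 48 hours at five concentrations; endpoints were interpolated linearly between bracketing concentrations, or set to the highest concentration if not reached. GI50 is the concentration that inhibits growth by half. TGI is the concentration that stops growth completely.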

Experiments:
Experiment in all cases: NCI-60 cell line screen, 48 h; in the data active = GI50 below about 0.43 µM; inactive = the rest
[1] = system: SR leukemia
[2] = system: MCF7 breast
[3] = system: RXF 393 renal
[4] = system: SW-620 colon
[5] = system: KM12 colon
[6] = system: BT-549 breast
[7] = system: K-562 leukemia
[8] = system: SF-295 CNS
[9] = system: SK-OV-3 ovarian
[10] = system: T-47D breast
[11] = system: CCRF-CEM leukemia
[12] = system: OVCAR-3 ovarian
[13] = system: COLO 205 colon
[14] = system: TK-10 renal
[15] = system: SF-268 CNS
[16] = system: SNB-75 CNS
[17] = system: IGROV1 ovarian
[18] = system: ACHN renal
[19] = system: HS 578T breast
[20] = system: A549 NSCLC
[21] = system: NCI/ADR-RES ovarian
[22] = system: LOX IMVI melanoma
[23] = system: MOLT-4 leukemia
[24] = system: U251 CNS
[25] = system: MDA-MB-231 breast
[26] = system: OVCAR-8 ovarian
[27] = system: SK-MEL-2 melanoma
[28] = system: NCI-H460 lung
[29] = system: MDA-MB-435
[30] = system: SNB-19 CNS
[31] = system: SF-539 CNS
[32] = system: HCC-2998 colon
[33] = system: MALME-3M melanoma
[34] = system: OVCAR-5 ovarian
[35] = system: NCI-H226 lung
[36] = system: HOP-92 NSCLC
[37] = system: UO-31 renal
[38] = system: UACC-257 melanoma
[39] = system: NCI-H23 lung
[40] = system: HCT-15 colon
[41] = system: HL-60(TB) leukemia
[42] = system: OVCAR-4 ovarian
[43] = system: A498 renal
[44] = system: M14 melanoma
[45] = system: 786-0 renal
[46] = system: SN12C renal
[47] = system: DU-145 prostate
[48] = system: SK-MEL-28 melanoma
[49] = system: UACC-62 melanoma
[50] = system: PC-3 prostate
[51] = system: HT29 colon
[52] = system: EKVX NSCLC
[53] = system: SK-MEL-5 melanoma
[54] = system: HCT-116 colon
[55] = system: CAKI-1 renal
[56] = system: NCI-H522 lung
[57] = system: RPMI-8226 leukemia
[58] = system: HOP-62 NSCLC

CCc1cc(C(N)=O)ccc1-n1nc(C(C)C)c2c(-n3cnc(-c4cnn(C)c4)c3)ccnc21
14.3 µM: TGI [36]
> 35.4 µM: TGI [49]
5.56 µM: TGI [22]
active: GI50 [13] 387 nM
> 100 µM: TGI [1] | TGI [2] | TGI [3] | TGI [4] | TGI [6] | TGI [7] | TGI [9] | TGI [10] | TGI [11] | TGI [12] | TGI [14] | TGI [15] | TGI [16] | TGI [17] | TGI [18] | TGI [19] | TGI [20] | TGI [21] | TGI [23] | TGI [24] | TGI [25] | TGI [26] | TGI [27] | TGI [28] | TGI [29] | TGI [30] | TGI [31] | TGI [32] | TGI [34] | TGI [35] | TGI [37] | TGI [38] | TGI [39] | TGI [40] | TGI [41] | TGI [42] | TGI [44] | TGI [45] | TGI [46] | TGI [47] | TGI [48] | TGI [50] | TGI [51] | TGI [52] | TGI [53] | TGI [54] | TGI [55] | TGI [56] | TGI [57] | TGI [58]
6.28 µM: TGI [5]
> 31.3 µM: TGI [33]
> 100000 nM: TGI [43]
inactive: GI50 [1] 546 nM | GI50 [2] 443 nM | GI50 [3] 3.09 µM | GI50 [4] 536 nM | GI50 [5] 463 nM | GI50 [6] 6.81 µM | GI50 [7] 867 nM | GI50 [8] 992 nM | GI50 [9] 492 nM | GI50 [10] 1830 nM | GI50 [11] 752 nM | GI50 [12] 2370 nM | GI50 [14] 1.23 µM | GI50 [15] 8.76 µM | GI50 [16] 4.11 µM | GI50 [17] 4.15 µM | GI50 [18] 1.62 µM | GI50 [19] 12 µM | GI50 [20] 2180 nM | GI50 [21] 32.8 µM | GI50 [22] 913 nM | GI50 [23] 0.955 µM | GI50 [24] 3.82 µM | GI50 [25] 3.25 µM | GI50 [26] 3.72 µM | GI50 [27] 4.41 µM | GI50 [28] 566 nM | GI50 [29] 719 nM | GI50 [30] 3.3 µM | GI50 [31] 3080 nM | GI50 [32] 3.39 µM | GI50 [33] 1050 nM | GI50 [34] 15.4 µM | GI50 [35] 3.68 µM | GI50 [36] 2300 nM | GI50 [37] 3.25 µM | GI50 [38] 2.9 µM | GI50 [39] 1.14 µM | GI50 [40] 2.9 µM | GI50 [41] 1140 nM | GI50 [42] 6.24 µM | GI50 [43] 4.99 µM | GI50 [44] 1220 nM | GI50 [45] 5.67 µM | GI50 [46] 0.761 µM | GI50 [47] 604 nM | GI50 [48] 1.22 µM | GI50 [49] 1180 nM | GI50 [50] 3.61 µM | GI50 [51] 474 nM | GI50 [52] 16.3 µM | GI50 [53] 3.98 µM | GI50 [54] 554 nM | GI50 [55] 5.61 µM | GI50 [56] 1470 nM | GI50 [57] 3.76 µM | GI50 [58] 7.92 µM
10.3 µM: TGI [8]

COc1ccc(/C=C2/SC(=Nc3c(C)nn(-c4ccccc4)c3N)NC2=O)cc1
39.4 µM: TGI [21]
52.4 µM: TGI [18]
50.5 µM: TGI [48]
18 µM: TGI [1]
59.5 µM: TGI [39]
3.97 µM: TGI [29]
77.7 µM: TGI [50]
45.3 µM: TGI [10] | TGI [35]
20.8 µM: TGI [11]
13.9 µM: TGI [4]
17.2 µM: TGI [27]
89.4 µM: TGI [45]
10.7 µM: TGI [28] | TGI [41]
16.6 µM: TGI [51]
69.7 µM: TGI [25]
24 µM: TGI [20]
2790 nM: TGI [43]
22.1 µM: TGI [33]
19.2 µM: TGI [13]
5.9 µM: TGI [12]
40 µM: TGI [52]
16.4 µM: TGI [56]
39.9 µM: TGI [58]
30.7 µM: TGI [40]
22.6 µM: TGI [44]
23.1 µM: TGI [47]
10.5 µM: TGI [53]
65.6 µM: TGI [38]
22.9 µM: TGI [57]
inactive: GI50 [1] 3630 nM | GI50 [2] 3080 nM | GI50 [3] 14.5 µM | GI50 [4] 3310 nM | GI50 [5] 3500 nM | GI50 [6] 4.94 µM | GI50 [7] 3020 nM | GI50 [8] 2760 nM | GI50 [9] 3650 nM | GI50 [10] 3960 nM | GI50 [11] 2140 nM | GI50 [12] 2600 nM | GI50 [13] 3840 nM | GI50 [14] 7.12 µM | GI50 [15] 4.84 µM | GI50 [16] 3.43 µM | GI50 [17] 5.2 µM | GI50 [18] 5.29 µM | GI50 [19] 2.17 µM | GI50 [20] 2740 nM | GI50 [21] 4.36 µM | GI50 [22] 3880 nM | GI50 [23] 8.4 µM | GI50 [24] 4.75 µM | GI50 [25] 9.5 µM | GI50 [26] 13.7 µM | GI50 [27] 3.99 µM | GI50 [28] 3040 nM | GI50 [29] 1270 nM | GI50 [30] 7.68 µM | GI50 [31] 2380 nM | GI50 [32] 6.87 µM | GI50 [33] 3770 nM | GI50 [34] 10.9 µM | GI50 [35] 8.28 µM | GI50 [36] 1400 nM | GI50 [37] 2.83 µM | GI50 [38] 6.63 µM | GI50 [39] 5.69 µM | GI50 [40] 3.64 µM | GI50 [41] 2900 nM | GI50 [42] 8.21 µM | GI50 [43] 1.07 µM | GI50 [44] 3720 nM | GI50 [45] 6.94 µM | GI50 [46] 8.39 µM | GI50 [47] 3730 nM | GI50 [48] 11.6 µM | GI50 [49] 3780 nM | GI50 [50] 4.35 µM | GI50 [51] 3800 nM | GI50 [52] 4.18 µM | GI50 [53] 3.23 µM | GI50 [54] 3300 nM | GI50 [55] 2.82 µM | GI50 [56] 3100 nM | GI50 [57] 3.9 µM | GI50 [58] 4.12 µM
20.6 µM: TGI [32]
63.2 µM: TGI [34]
28.8 µM: TGI [17]
25.3 µM: TGI [9]
22.4 µM: TGI [6]
14.4 µM: TGI [36]
13.2 µM: TGI [8]
47.8 µM: TGI [3]
> 100 µM: TGI [7] | TGI [23] | TGI [30] | TGI [42]
31.5 µM: TGI [2]
35.7 µM: TGI [15]
15.7 µM: TGI [55]
18.3 µM: TGI [49]
6.57 µM: TGI [19]
13.6 µM: TGI [5]
19 µM: TGI [37]
15.8 µM: TGI [22]
26.7 µM: TGI [16]
55.2 µM: TGI [46]
12.5 µM: TGI [54]
10.8 µM: TGI [31]
77.9 µM: TGI [26]
34.7 µM: TGI [24]
57.3 µM: TGI [14]
